No end group written: not given here.
What was measured:
HSC-4 cells [1] = assay: FACS of fixed HSC-4 cells with and without saponin permeabilization; type: cell-based, human; conditions: fixed (4% PFA) HSC-4 cells, 10 μM FITC-labelled peptide, with or without 0.3% saponin, buffer with 1% FBS, 1 h at room temperature; FACS fluorescence
Experimental: (§1) TM2-FITC was used for FACS analyses with and without permeabilization of fixed HSC-4 cells using saponin. […] To check whether it can be used for live sorting, live HSC-4 cells were stained with the peptide and analyzed by FACS. […] The live uptake of TM2-FITC by HSC-4 monolayer cells was visualized under microscope immediately after washing off the staining solution (Fig. 2c).
(§2) FACS analysis was performed as reported previously. Monolayer cells were trypsinized and fixed using 4% PFA, and peptide labeled with FITC (10 μM) was added to the cells in presence or absence of 0.3% saponin in a buffer containing 1%FBS, and incubated for one hour at room temperature. For live sorting, the cells were resuspended in 75 μl of PBS containing the peptide for one hour. Cells were diluted with 200 μl of PBS and sorted immediately using FACS Aria II.

[2] = tested on: HSC-4 cells and Hira-/- ES cells; assay: FACS of live HSC-4 / Hira-/- ES cell mixture dual stained with TM2-FITC and CD44-PE; type: cell-based
Source text: (§3) Since TM2-FITC binds to its target in live cells without any permeabilizing agents, we sought the possibility of its use in live sorting. We tried to separate HIRA expressing cells from HIRA deficient cells using FACS. We took oral cancer cell line HSC-4, which expresses HIRA, and mixed with Hira^−/− ES cells in 2.5:1 ratio. […] These cells were sorted out as positive and negative populations with gates P2 and P3 and were allowed to grow for 5 days in 8-well chamber slide. The DIC images confirm that the positive population was HSC-4 keratinocytes and the negative population was ES cells (Fig. 3b). Again wild type ES cells and Hira^−/− ES cells were mixed in 1:1 ratio and sorted as mentioned before. […] These cells grown in slide chambers were stained with antibodies for HIRA and an epithelial marker, CD44. […] The cross contamination in P3 population for the mixture of null and wild type ES cells was <4%. Since 5 days of growth in ES culture medium might give a selection advantage for ES cells over the contaminating keratinocytes, another FACS was performed to check the false positivity and negativity. HSC-4 cells and Hira^−/− ES cells were stained alone or in mixture with the TM2-FITC and CD44-PE and analyzed by FACS. […] The false positivity that we observed in P4 population could be overcome by a stringent gating as we have done in Fig 3. To further ascertain the false positivity in sorting based on TM2-FITC, the mixture of two cell types were separated for HIRA a positivity as shown in Fig. 4d. The positive population was analyzed for possible cross contamination for ES cells as shown by CD44 negativity. […] Comparing the cost of peptide synthesis with antibody development, this method is more cost effective than conventional antibodies. In future, the strategy can be improved by modifications that increases the retention time of the peptide, to ensure more purity. We argue that this approach will have immense use in cell biology, developmental biology and clinical applications.
Figure 4 Specificity of TM2-FITC live sorting. (a) The FACS profiles of live HSC-4 cells and ES cells alone or in a mixture stained with TM2-FITC and CD44-PE. The two populations in P2 and P4 gate were selected for CD44 positivity. (b) Sorted cells were further analyzed for HIRA positivity (c) The dual stained cells were separated for both FITC and PE. The positivity of different populations is marked. (d) The mixture of two cell types were separated for HIRA positivity and the P2 population was further analyzed for CD44 positivity.
(§4) FACS analysis was performed as reported previously. […]

[3] = tested on: HSC-4 cells and Hira-/- ES cells; assay: Live sorting of a mixture of HSC-4 cells and Hira-/- ES cells; type: cell-based
Source text: Since TM2-FITC binds to its target in live cells without any permeabilizing agents, we sought the possibility of its use in live sorting. We tried to separate HIRA expressing cells from HIRA deficient cells using FACS. We took oral cancer cell line HSC-4, which expresses HIRA, and mixed with Hira^−/− ES cells in 2.5:1 ratio. […] These cells were sorted out as positive and negative populations with gates P2 and P3 and were allowed to grow for 5 days in 8-well chamber slide. The DIC images confirm that the positive population was HSC-4 keratinocytes and the negative population was ES cells (Fig. 3b). Again wild type ES cells and Hira^−/− ES cells were mixed in 1:1 ratio and sorted as mentioned before. […] These cells grown in slide chambers were stained with antibodies for HIRA and an epithelial marker, CD44. […] The cross contamination in P3 population for the mixture of null and wild type ES cells was <4%. Since 5 days of growth in ES culture medium might give a selection advantage for ES cells over the contaminating keratinocytes, another FACS was performed to check the false positivity and negativity. HSC-4 cells and Hira^−/− ES cells were stained alone or in mixture with the TM2-FITC and CD44-PE and analyzed by FACS. […] The positive population was analyzed for possible cross contamination for ES cells as shown by CD44 negativity. […]

[4] = tested on: wild type ES cells and Hira-/- ES cells; assay: Live sorting of a mixture of wild type and Hira-/- ES cells; type: cell-based, mouse
Source text: as §3, §4

HSC-4 cells [5] = assay: FACS of live HSC-4 cells stained with the peptide; type: cell-based, human
Experimental: as §1, §2

[6] = tested on: wild type and Hira-/- ES cells; assay: Live uptake by ES cells under the confocal microscope; type: cell-based, mouse; conditions: live wild type and Hira-/- ES cells grown in confocal dishes, TM2-FITC; fluorescence microscopy
Source text: as §1
(a) The FACS profile of fixed HSC-4 cells stained with TM2-FITC. (b) Live cells were stained with the TM2-FITC as described under methods and analyzed in FACS Aria II. (c) HSC-4 cells were grown in confocal dishes and incubated with TM2-FITC diluted in PBS for 1 h. Prior to imaging the cells were briefly washed and imaged (d) ES cells were grown in confocal dishes and stained using TM2-FITC. Hoechst 33342 dye was used to visualize the nucleus. The scale bar represents 10 μm.

HIRA [7] = biological target: T1, HIRA (Homo sapiens, UniProt P54198); assay: Immunofluorescence of fixed and permeabilized HSC-4 cells; type: cell-based; conditions: fixed (4% PFA) and permeabilized (0.3% Triton X-100) HSC-4 cells; overnight at 4 °C; confocal microscopy
T1 construct: We took oral cancer cell line HSC-4, which expresses HIRA; endogenous in cells; host or cells: HSC-4
T1 sequence (P54198 whole entry): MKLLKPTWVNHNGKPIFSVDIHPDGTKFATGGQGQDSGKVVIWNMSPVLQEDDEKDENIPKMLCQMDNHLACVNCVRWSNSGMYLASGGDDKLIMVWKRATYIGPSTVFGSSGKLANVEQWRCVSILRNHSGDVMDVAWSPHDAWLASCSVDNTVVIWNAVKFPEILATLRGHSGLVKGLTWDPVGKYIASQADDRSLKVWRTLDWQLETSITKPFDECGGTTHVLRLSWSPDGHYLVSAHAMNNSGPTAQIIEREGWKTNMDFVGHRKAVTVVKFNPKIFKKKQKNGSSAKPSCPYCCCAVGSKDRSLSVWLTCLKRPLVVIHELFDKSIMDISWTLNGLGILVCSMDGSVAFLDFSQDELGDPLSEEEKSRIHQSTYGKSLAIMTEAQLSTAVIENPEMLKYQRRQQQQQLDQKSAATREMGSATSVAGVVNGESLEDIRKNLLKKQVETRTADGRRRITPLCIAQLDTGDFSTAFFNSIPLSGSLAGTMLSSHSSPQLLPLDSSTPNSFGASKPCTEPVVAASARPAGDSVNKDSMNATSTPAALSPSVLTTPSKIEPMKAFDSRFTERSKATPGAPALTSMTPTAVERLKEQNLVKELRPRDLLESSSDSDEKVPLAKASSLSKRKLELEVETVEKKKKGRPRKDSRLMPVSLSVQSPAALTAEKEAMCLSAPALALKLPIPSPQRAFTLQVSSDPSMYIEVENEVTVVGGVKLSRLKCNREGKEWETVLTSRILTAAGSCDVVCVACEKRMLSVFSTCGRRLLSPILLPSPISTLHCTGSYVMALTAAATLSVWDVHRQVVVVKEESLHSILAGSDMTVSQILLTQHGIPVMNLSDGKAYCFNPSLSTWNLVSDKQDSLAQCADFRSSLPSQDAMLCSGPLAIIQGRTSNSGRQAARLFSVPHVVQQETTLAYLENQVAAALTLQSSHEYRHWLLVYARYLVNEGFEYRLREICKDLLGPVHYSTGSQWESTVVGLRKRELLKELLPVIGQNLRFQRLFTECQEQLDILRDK
Source text: (§5) One of the problems that could emerge in a peptide-based detection is its specificity. To confirm whether the peptide detects correct molecule, we performed a western blot using biotin-tagged peptide, a novel approach for showing specificity. TM2 was tagged with biotin and purified by size exclusion chromatography, and was used instead of primary antibody in western blot. The blot was developed with streptavidin-HRP and ECL to get a single band at 110 kDa, as observed in antibody-based detection (Fig. 1b). The peptide was tagged to FITC and was used for immunofluorescence in comparison with HIRA antibody. The staining pattern in fixed and permeabilized oral cancer cell line HSC-4 was similar in both TM2-FITC and HIRA antibody (Fig. 1c), confirming the specificity. To rule out nonspecific binding of peptide we selected HIRA-knock out cells. So, we analyzed the specificity using mouse W9.5 (wild type) and Hira^−/− W9.5 ES cells, reported earlier. Since we designed peptides using human sequence, and the cell line is of mouse origin we compared the sequence similarity of binding region of both HIRA and H2B across the two species. […] So we anticipated that the peptide will recognize mouse HIRA as well.
(§6) Monolayer cells seeded in micro slide chamber were fixed using 4% paraformadehyde (PFA), permeabilized with 0.3% Triton X-100/PBS (PBST) and blocked with 2% serum as described previously. […]

HIRA [8] = biological target: T2, HIRA (Mus musculus, UniProt Q61666); assay: Immunofluorescence of fixed and permeabilized wild type and Hira-/- W9.5 ES cells; type: cell-based; conditions: fixed and permeabilized mouse W9.5 wild type versus Hira-/- ES cells; confocal microscopy
T2 construct: endogenous in cells; host or cells: mouse W9.5 ES cells (wild type)
T2 sequence (Q61666 whole entry): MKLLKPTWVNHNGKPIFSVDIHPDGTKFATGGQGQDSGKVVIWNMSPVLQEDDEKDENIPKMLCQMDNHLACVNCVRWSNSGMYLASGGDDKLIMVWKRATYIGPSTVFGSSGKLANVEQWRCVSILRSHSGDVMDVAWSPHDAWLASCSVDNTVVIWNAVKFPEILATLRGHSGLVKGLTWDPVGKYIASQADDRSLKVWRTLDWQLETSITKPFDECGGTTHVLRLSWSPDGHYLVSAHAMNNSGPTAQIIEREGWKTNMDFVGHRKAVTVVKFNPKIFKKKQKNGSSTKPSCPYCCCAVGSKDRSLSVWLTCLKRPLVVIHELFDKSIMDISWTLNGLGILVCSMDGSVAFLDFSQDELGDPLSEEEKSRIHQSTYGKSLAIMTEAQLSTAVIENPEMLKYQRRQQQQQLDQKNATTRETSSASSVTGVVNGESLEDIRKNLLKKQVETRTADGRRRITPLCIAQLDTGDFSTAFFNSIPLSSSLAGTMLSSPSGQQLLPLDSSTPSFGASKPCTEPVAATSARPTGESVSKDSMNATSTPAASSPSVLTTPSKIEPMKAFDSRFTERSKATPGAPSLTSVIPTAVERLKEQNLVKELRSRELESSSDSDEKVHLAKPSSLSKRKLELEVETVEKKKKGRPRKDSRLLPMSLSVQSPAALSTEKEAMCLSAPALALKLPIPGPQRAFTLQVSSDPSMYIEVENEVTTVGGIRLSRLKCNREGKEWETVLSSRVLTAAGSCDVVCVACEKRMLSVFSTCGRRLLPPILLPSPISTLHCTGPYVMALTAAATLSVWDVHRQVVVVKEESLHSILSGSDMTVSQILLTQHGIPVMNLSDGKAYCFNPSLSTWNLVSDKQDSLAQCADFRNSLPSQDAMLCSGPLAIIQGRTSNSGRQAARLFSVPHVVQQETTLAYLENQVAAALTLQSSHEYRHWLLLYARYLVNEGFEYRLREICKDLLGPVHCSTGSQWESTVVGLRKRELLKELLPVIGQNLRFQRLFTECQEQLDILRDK
Source text: as §5, §6

[9] = mixture of live HSC-4 and Hira-/- ES cells, TM2-FITC and CD44-PE, Fig. 4b

staining pattern compared with HIRA antibody (HIRA [7]) | staining of HIRA-/- ES cells (specificity) (HIRA [8]) | Substance | cell permeability / internalization (HSC-4 cells [1]) | false positive ratio in dual staining ([2]; dual stained cells separated for both FITC and PE, Fig. 4c) [%] | HIRA positivity of CD44+ population (P2) [2, 9] [%] | false HIRA positivity of Hira-/- ES cells (CD44 negative, P4) [2, 9] [%] | false positive ratio (CD44 negative cells in the HIRA positive population) ([2]; mixture separated for HIRA positivity, P2 population analysed for CD44, Fig. 4d) [%] | HIRA positive cells observed (gate P2) ([3]; live HSC-4 and Hira-/- ES cells mixed 2.5:1 (2.5x10^5 / 1x10^5), expected 71.4%, FACS) [%] | contamination of sorted P3 (negative) population by CD44+HIRA+ cells ([3]; sorted cells grown 5 days in 8-well chamber slide, stained with HIRA and CD44 antibodies) [%] | viability of sorted ES cells ([4]; cells sorted live with TM2-FITC, grown 5 days in 8-well chamber slide, DIC images) | observed ratio of positivity (gate P2) ([4]; live wild type ES and Hira-/- ES cells mixed 1:1 (1x10^5 / 1x10^5), expected 50%, FACS) [%] | cross contamination in sorted P3 (negative) population ([4]; mixture of null and wild type ES cells, sorted cells grown 5 days, stained with HIRA antibody) [%] | signal after washing with peptide free solution (HSC-4 cells [5]; live HSC-4 cells stained with the peptide, FACS) | cells positive for HIRA (HSC-4 cells [5]; live HSC-4 cells, no permeabilization, peptide in 75 μl PBS for 1 h, diluted with 200 μl PBS, FACS Aria II) [%] | live uptake pattern in ES cells [6]
– | – | PKKGSKKAVTKAQKKDGA-NH2 [TM2] | cell permeable | – | – | – | – | – | – | – | – | – | – | – | –
similar | absence of staining | TM2-FITC: TM2 peptide tagged to FITC, used for immunofluorescence, FACS and live sorting (PKKGSKKAVTKAQKKDGA-NH2; also: FITC, site not given here) | internalized without permeabilization | 0.6 | 82 | 2.7 | 0.9 | 65.7 | < 1 | viable and formed colonies in 5 days | 49.6 | < 4 | loss of the signal | 85 | limited to the wild type ES cells
